These results are taken from PubChem BioAssay AID200 (DTP/NCI, 2004).

“And” between values parts separate entries of the source, which are not always exact repeats. Equal entries are not always repeated. Inconclusive results and toxic doses are left out.

This experiment deals with B6C3F1 mice, B16 melanoma ip, median survival T/C. Put plainly: NCI In Vivo Anticancer Drug Screen. Data for tumor model B16 Melanoma (intraperitoneal) in B6C3F1 mice. The settings on record: endpoint: median survival time, higher = longer survival. The procedure, abridged:
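Transplantable tumor in mice; treated vs vehicle control groups; survival or tumor size measured; value = T/C ratio.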

The mark [1] stands for this setting: dose: 25.0 mg/kg/injection, schedule: Q01DX009 (ip), vehicle: saline.
[2] abbreviates: dose: 50.0 mg/kg/injection, schedule: Q01DX009 (ip), vehicle: saline.
[3] abbreviates: dose: 6.25 mg/kg/injection, schedule: Q01DX009 (ip), vehicle: saline.
Setting [4] is: dose: 12.5 mg/kg/injection, schedule: Q01DX009 (ip), vehicle: saline.
Setting [5] is: dose: 12.0 mg/kg/injection, schedule: Q01DX009 (ip), vehicle: saline.
Setting [6] is: dose: 12.5 mg/kg/injection, schedule: Q01DX009 (ip), vehicle: saline with Tween-80.

`O=[N+]([O-])O.[Ga]`: the T/C (dose: 4.0 mg/kg/injection, schedule: Q01DX009 (ip), vehicle: saline) is 105 % of control; the T/C (dose: 4.0 mg/kg/injection, schedule: Q01DX009 (ip), vehicle: water) is 99 % of control; the T/C (dose: 8.0 mg/kg/injection, schedule: Q01DX009 (ip), vehicle: saline) is 98 % of control; the T/C (dose: 8.0 mg/kg/injection, schedule: Q01DX009 (ip), vehicle: water) was 95 % of control; the T/C (dose: 16.0 mg/kg/injection, schedule: Q01DX009 (ip), vehicle: saline) is 101 % of control; the T/C (dose: 16.0 mg/kg/injection, schedule: Q01DX009 (ip), vehicle: water) was 100 % of control. Besides, the T/C reads like this: under setting [1], 101 % of control; (dose: 32.0 mg/kg/injection, schedule: Q01DX009 (ip), vehicle: saline) 95 % of control; (dose: 32.0 mg/kg/injection, schedule: Q01DX009 (ip), vehicle: water) 97 % of control; under setting [2], 100 % of control; (dose: 64.0 mg/kg/injection, schedule: Q01DX009 (ip), vehicle: saline) 91 % of control; (dose: 64.0 mg/kg/injection, schedule: Q01DX009 (ip), vehicle: water) 96 % of control.

Take `Cc1ncc(O)c(CO)c1O`: the T/C (dose: 0.78 mg/kg/injection, schedule: Q01DX009 (ip), vehicle: saline) was 102 % of control; the T/C (dose: 1.56 mg/kg/injection, schedule: Q01DX009 (ip), vehicle: saline) is 102 % of control; the T/C (dose: 3.13 mg/kg/injection, schedule: Q01DX009 (ip), vehicle: saline) is 99 % of control; the T/C under setting [3] was 105 % of control; the T/C under setting [4] was 101 % of control; the T/C under setting [1] is 91 % of control. The T/C under setting [2] was 96 % of control.

As to `COc1cccc2c1C(=O)c1c(O)c3c(c(O)c1C2=O)C[C@@](O)(C(C)=O)C[C@@H]3OC1CC(N2CCOCC2)C(O)C(C)O1` (stereo partly drawn), the T/C (dose: 0.06 mg/kg/injection, schedule: Q01DX001 (ip), vehicle: water) is 120 % of control; the T/C (dose: 0.12 mg/kg/injection, schedule: Q01DX001 (ip), vehicle: water) was 123 % of control; the T/C (dose: 62.5 micrograms/kg/injection, schedule: Q01DX001 (ip), vehicle: water) was 113 % of control; the T/C (dose: 125.0 micrograms/kg/injection, schedule: Q01DX001 (ip), vehicle: water) is 122 % of control.

On to `Oc1ccccc1C=NCCC[N-]CCCN=Cc1ccccc1O.[Co]`, for which the T/C (dose: 6.25 mg/kg/injection, schedule: Q01DX008 (ip), vehicle: saline) was 97 % of control; the T/C under setting [3] is 101 % of control; the T/C (dose: 12.5 mg/kg/injection, schedule: Q01DX008 (ip), vehicle: saline) was 107 % of control; the T/C under setting [4] was 107 % of control; the T/C (dose: 25.0 mg/kg/injection, schedule: Q01DX008 (ip), vehicle: saline) is 96 % of control; the T/C under setting [1] was 113 % of control. Also, the T/C is, setting by setting: (dose: 50.0 mg/kg/injection, schedule: Q01DX008 (ip), vehicle: saline) 86 % of control; under setting [2], 105 % of control; (dose: 100.0 mg/kg/injection, schedule: Q01DX008 (ip), vehicle: saline) 95 % of control.

For `CCOC(=O)NC1CCc2cc(OC)c(OC)c(OC)c2-c2ccc(OC)c(=O)cc21` (stereo not drawn), the T/C (dose: 1.5 mg/kg/injection, schedule: Q01DX009 (ip), vehicle: Klucel (hydroxypropylcellulose) (HPC)) is 152 % of control; the T/C (dose: 2.5 mg/kg/injection, schedule: Q01DX009 (ip), vehicle: Klucel (hydroxypropylcellulose) (HPC)) is 150 % of control and 152 % of control; the T/C (dose: 4.16 mg/kg/injection, schedule: Q01DX009 (ip), vehicle: Klucel (hydroxypropylcellulose) (HPC)) is 154 % of control.

Consider `Cc1cc(O)c(O)c(Oc2cc(C)cc(O)c2O)c1`, for which the T/C (dose: 75.0 micrograms/kg/injection, schedule: Q01DX009 (ip), vehicle: saline) is 94 % of control; the T/C (dose: 150.0 micrograms/kg/injection, schedule: Q01DX009 (ip), vehicle: saline) was 104 % of control; the T/C (dose: 300.0 micrograms/kg/injection, schedule: Q01DX009 (ip), vehicle: saline) was 105 % of control.

Regarding `CCCCCCCC(=O)O[C@H]1[C@H]2[C@@H](CC1(C)C)C(=O)[C@]13O[C@H]1C(=O)[C@]1(CO1)[C@]23C`, the T/C (dose: 0.31 mg/kg/injection, schedule: Q01DX009 (ip), vehicle: saline with Tween-80) was 98 % of control; the T/C (dose: 0.62 mg/kg/injection, schedule: Q01DX009 (ip), vehicle: saline with Tween-80) was 90 % of control; the T/C (dose: 1.25 mg/kg/injection, schedule: Q01DX009 (ip), vehicle: saline with Tween-80) is 86 % of control and 98 % of control; the T/C (dose: 2.5 mg/kg/injection, schedule: Q01DX009 (ip), vehicle: saline with Tween-80) is 88 % of control.

As for `CC1(C)N=C(N)N=C(N)N1c1ccc(F)c(C(F)(F)F)c1`, the T/C is, setting by setting: (dose: 0.37 mg/kg/injection, schedule: Q01DX009 (ip), vehicle: saline) 93 % of control; (dose: 0.75 mg/kg/injection, schedule: Q01DX009 (ip), vehicle: saline) 96 % of control; (dose: 1.5 mg/kg/injection, schedule: Q01DX009 (ip), vehicle: saline) 94 % of control; (dose: 3.0 mg/kg/injection, schedule: Q01DX009 (ip), vehicle: saline) 99 % of control; (dose: 6.0 mg/kg/injection, schedule: Q01DX009 (ip), vehicle: saline) 106 % of control; under setting [5], 113 % of control. Besides, the T/C under setting [4] is 120 % of control.

Turning to `C[N+](C)(C)c1ncnc2nc[nH]c12`, the T/C reads like this: under setting [4], 98 % of control; under setting [1], 100 % of control; under setting [2], 114 % of control and 88 % of control; (dose: 100.0 mg/kg/injection, schedule: Q01DX009 (ip), vehicle: saline) 93 % of control and 103 % of control; (dose: 200.0 mg/kg/injection, schedule: Q01DX009 (ip), vehicle: saline) 93 % of control.

With `N/C(=N\OC(=O)Nc1ccc(CSc2ccc(Cl)cc2)o1)c1ccccn1`, the T/C was 97 % of control (dose: 12.5 mg/kg/injection, schedule: Q01DX009 (ip), vehicle: Klucel (hydroxypropylcellulose) (HPC)); 95 % of control (dose: 25.0 mg/kg/injection, schedule: Q01DX009 (ip), vehicle: Klucel (hydroxypropylcellulose) (HPC)); 91 % of control (dose: 50.0 mg/kg/injection, schedule: Q01DX009 (ip), vehicle: Klucel (hydroxypropylcellulose) (HPC)); 91 % of control (dose: 100.0 mg/kg/injection, schedule: Q01DX009 (ip), vehicle: Klucel (hydroxypropylcellulose) (HPC)); 86 % of control (dose: 200.0 mg/kg/injection, schedule: Q01DX009 (ip), vehicle: Klucel (hydroxypropylcellulose) (HPC)).

On to `C1CC[N-]CC1.[Cl][Pt+2][Cl].[NH-]C1CC1`, for which the T/C runs as follows: (dose: 1.56 mg/kg/injection, schedule: Q01DX009 (ip), vehicle: saline with Tween-80) 117 % of control; (dose: 3.12 mg/kg/injection, schedule: Q01DX009 (ip), vehicle: water) 106 % of control; (dose: 6.25 mg/kg/injection, schedule: Q01DX009 (ip), vehicle: water) 116 % of control; under setting [6], 159 % of control.

For the compound `COC1=C(C)C(=O)C2=C(C1=O)C(CO)N1C(C#N)C3CC4C(C1C2N1CCOC41)N3C` (stereo not drawn), the T/C runs as follows: (dose: 0.06 mg/kg/injection, schedule: Q01DX009 (ip), vehicle: acid diluted with saline) 105 % of control; (dose: 0.12 mg/kg/injection, schedule: Q01DX009 (ip), vehicle: acid diluted with saline) 98 % of control; (dose: 0.12 mg/kg/injection, schedule: Q01DX009 (ip), vehicle: saline + alcohol) 102 % of control; (dose: 0.25 mg/kg/injection, schedule: Q01DX009 (ip), vehicle: acid diluted with saline) 111 % of control; (dose: 0.25 mg/kg/injection, schedule: Q01DX009 (ip), vehicle: saline + alcohol) 109 % of control and 104 % of control; (dose: 0.5 mg/kg/injection, schedule: Q01DX009 (ip), vehicle: acid diluted with saline) 116 % of control and 103 % of control. Further, the T/C reads like this: (dose: 0.5 mg/kg/injection, schedule: Q01DX009 (ip), vehicle: saline + alcohol) 112 % of control and 113 % of control and 118 % of control; (dose: 1.0 mg/kg/injection, schedule: Q01DX009 (ip), vehicle: acid diluted with saline) 108 % of control and 113 % of control; (dose: 1.0 mg/kg/injection, schedule: Q01DX009 (ip), vehicle: saline + alcohol) 109 % of control and 121 % of control.

Turning to `Oc1ccc(CCl)c2cccnc12`, the T/C by setting is: under setting [5], 102 % of control; under setting [4], 100 % of control.

Consider `CC1c2ccccc2CC(CCN(C)C)c2ccccc21` (stereo not drawn), for which the T/C reads like this: (dose: 6.25 mg/kg/injection, schedule: Q01DX009 (ip), vehicle: saline with Tween-80) 104 % of control; under setting [6], 98 % of control; (dose: 25.0 mg/kg/injection, schedule: Q01DX009 (ip), vehicle: saline with Tween-80) 99 % of control; (dose: 50.0 mg/kg/injection, schedule: Q01DX009 (ip), vehicle: saline with Tween-80) 95 % of control.
